Laboratory results reported in US6703388B2, “Nitrogen-containing tricyclic compounds and drugs containing the same” (Eisai Co., Ltd., priority 1996, dated 2004).
Like-named read-outs stand apart in the source and are kept apart here.

Columns and labels:
RBL-2H3 cells = assay: Inhibition of serotonin liberation from IgE-sensitized RBL-2H3 cells after antigen stimulation; format: cell-based, rat; details: Rattus norvegicus; [3H]-serotonin release, IgE-sensitized RBL-2H3 cells, antigen stimulation; read-out: IC50 (μM) in serotonin liberation from RBL-2H3 cells
Outline: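 Rat RBL-2H3 cells labelled with [3H]-serotonin and sensitized with IgE simultaneously, incubated with compound, then challenged with specific antigen. Inhibition derived from [3H]-serotonin released into medium relative to release without compound.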

[1] = molecular target: T1, tyrosine kinase of 72 kDa (Rattus norvegicus, UniProt Q64725); assay: Inhibition of activation (phosphorylation) of tyrosine kinase of 72 kDa due to antigenic stimulation in RBL-2H3 cells; format: cell-based
T1 construct: endogenous in cells; host or cells: RBL-2H3 cells
Method: RBL-2H3 cells were incubated for 10 min together with a test compound in a PBS buffer containing 0.1% of BSA and 1 mM of calcium. Next, the cells were reacted with an antigen specific for the IgE receptor for 10 min. After the completion of the antigenic stimulation, the cells were allowed to stand in ice for 1 hr in a 10 mM phosphate buffer (pH 7.5) containing a lysis buffer (1% Triton X-100, 0.1% SDS, 0.5% sodium deoxycholate, 50 mM NaCl, 50 mM NaF, 1 mM phenylmethyl sulfonyl fluoride, 50 μg/ml eupeptin, 10 unit/ml aprotonin) and 0.1% of NaN3 followed by centrifugation to give a cell lysate. This lysate was diluted with a buffer for electrophoresis, heated (95° C., 5 min) and then electrophoresed on a 10% SDS-polyacrylamide gel. After the electrophoresis, the sample was electrically transcribed onto a 0.2 μm nitrocellulose membrane and treated with an anti-phosphotyrosine antibody for 1 hr. Then the inhibitory activity was evaluated by the coloring analysis through chemiluminescence.

human basophils = assay: Inhibition of mediator (histamine, peptide leukotriene) liberation from human basophils stimulated with mite antigen; format: cell-based; details: enzyme immunoassay
Outline: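 Dextran-separated leukocyte fraction containing basophils from heparinized human blood, in D-PBS(+) with 0.1% BSA, pretreated with compound 15 min at 37 °C, then challenged with mite antigen for 10 min. Released histamine and peptide leukotrienes in supernatant quantified by enzyme immunoassay.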

[2] = histamine, read-out: IC50 (μM) in mediator liberation from human basophils: histamine
[3] = peptide leukotriene, read-out: IC50 (μM) in mediator liberation from human basophils: leukotriene

T1 sequence (Q64725 whole entry): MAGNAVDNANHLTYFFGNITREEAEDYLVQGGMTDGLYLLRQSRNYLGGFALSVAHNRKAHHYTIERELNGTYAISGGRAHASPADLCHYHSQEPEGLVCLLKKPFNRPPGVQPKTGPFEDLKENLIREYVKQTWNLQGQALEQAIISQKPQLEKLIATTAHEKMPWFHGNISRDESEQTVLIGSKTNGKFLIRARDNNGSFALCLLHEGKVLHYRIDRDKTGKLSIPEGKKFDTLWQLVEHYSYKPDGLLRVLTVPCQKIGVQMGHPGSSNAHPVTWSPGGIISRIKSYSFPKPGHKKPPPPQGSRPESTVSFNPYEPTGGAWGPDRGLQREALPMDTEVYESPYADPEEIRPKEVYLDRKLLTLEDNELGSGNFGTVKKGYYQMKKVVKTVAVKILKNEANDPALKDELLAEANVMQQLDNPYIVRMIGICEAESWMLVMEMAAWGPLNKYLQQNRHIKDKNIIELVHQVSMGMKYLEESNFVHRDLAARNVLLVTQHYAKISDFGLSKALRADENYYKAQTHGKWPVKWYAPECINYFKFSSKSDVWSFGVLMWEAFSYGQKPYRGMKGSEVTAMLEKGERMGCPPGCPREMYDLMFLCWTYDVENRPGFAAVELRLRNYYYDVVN

Row | Inhibitory Strength (%) ([1]; Conc. of Compd. 3 μM) | Inhibitory Strength (%) ([1]; Conc. of Compd. 10 μM) | Inhibitory Strength (%) ([1]; Conc. of Compd. 30 μM) | Compound | IC50 (RBL-2H3 cells) [µM] | IC50 (human basophils; [2]) [µM] | IC50 (human basophils; [3]) [µM]
1 | 100 | – | – | Cc1ccc2c(c1C)N(CCCN)c1ccccc1[S+]2[O-] (stereo not drawn) [Example 8, 1,2-Dimethyl-10-(3-aminopropyl)phenothiazine-5-oxide] | 0.1 | – | –
2 | 100 | – | – | Cc1ccc2c(c1C)N(CCCNCc1ccccc1)c1cc(CCO)ccc1[S+]2[O-] (stereo not drawn) [Example 94] | < 1 | 30 to 100 | 10
3 | 100 | – | – | Cc1ccc2c(c1C)N(CCCN1CCCCC1)c1ccccc1[S+]2[O-] (stereo not drawn) [Example 104] | < 3 | – | –
4 | 100 | – | – | Cc1ccc2c(c1C)N(CCCN(CCO)Cc1ccccc1)c1ccccc1[S+]2[O-] (stereo not drawn) [Example 105] | 2 | 30 | 10 to 30
5 | – | 80 | – | Cc1ccc2c(c1C)N(CCCN1CCN(S(=O)(=O)c3ccccc3)CC1)c1ccccc1[S+]2[O-] (stereo not drawn) [Example 115] | 3 | 30 to 100 | 10
6 | – | – | 100% | Cc1ccc2c(c1C)N(CCCNc1ccccc1)c1ccccc1[S+]2[O-] (stereo not drawn) [Example 123] | 3 | 30 | 10 to 30
7 | 100 | – | – | Cc1ccc2c(c1C)N(CCCN1CCC(C(=O)O)CC1)c1ccccc1[S+]2[O-] (stereo not drawn) [Example 129] | < 1 | – | –
8 | 100 | – | – | Cc1ccc2c(c1C)N(CCCN(CC(=O)O)CC(=O)O)c1ccccc1[S+]2[O-] (stereo not drawn) [Example 132] | 2 | – | –
9 | – | 100 | – | Cc1ccc2c(c1C)N(C/C=C/CNCc1ccccc1)c1ccccc1[S+]2[O-] (stereo not drawn) [Example 138, 1,2-Dimethyl-10-[4-benzylamino(2-butenyl)]phenothiazine-5-oxide] | 3 | 10 to 30 | 10
10 | – | 100 | – | Cc1ccc2c(c1C)N(CCCCNCc1ccccc1)c1ccccc1[S+]2[O-] (stereo not drawn) [Example 139] | 2 | 30 to 100 | 10 to 30
11 | – | 100 | – | Cc1ccc2c(c1C)N(CCNCc1ccccc1)c1ccccc1[S+]2[O-] (stereo not drawn) [Example 143, 1,2-Dimethyl-10-(2-benzylaminoethyl)phenothiazine-5-oxide] | 3 | < 10 | < 10
12 | – | – | – | Cc1ccc2c(c1C)N(CCNCc1ncc[nH]1)c1ccccc1[S+]2[O-] (stereo not drawn) [Example 162] | 1 | 30 to 100 | < 10
13 | – | – | – | Cc1ccc2c(c1C)N(CCNCc1cccc(C(F)(F)F)c1O)c1ccccc1[S+]2[O-] (stereo not drawn) [Example 163] | 3 | 10 to 30 | 10
14 | – | – | – | Cc1ccc2c(c1C)N(CCCN(C)Cc1ccc(O)cc1)c1ccccc1[S+]2[O-] (stereo not drawn) [Example 165] | 0.3 | 10 to 30 | 3 to 10
15 | – | – | – | Cc1ccc2c(c1C)N(CCCN(C)Cc1cccc(O)c1)c1ccccc1[S+]2[O-] (stereo not drawn) [Example 166] | 0.5 | 10 to 30 | 3 to 10
16 | – | – | – | Cc1ccc2c(c1C)N(CCCN(C)Cc1cccc(C)c1O)c1ccccc1[S+]2[O-] (stereo not drawn) [Example 168] | 2 | < 10 | < 10
17 | – | – | – | COc1cccc(CN(C)CCCN2c3ccccc3[S+]([O-])c3ccc(C)c(C)c32)c1O (stereo not drawn) [Example 169] | 0.5 | 30 to 100 | 10 to 30
18 | – | – | – | COc1cccc(OC)c1CN(C)CCCN1c2ccccc2[S+]([O-])c2ccc(C)c(C)c21 (stereo not drawn) [Example 170] | 0.5 | 10 to 30 | 3
19 | – | – | – | Cc1ccc2c(c1C)N(CCCN(C)Cc1cc(O)ccc1O)c1ccccc1[S+]2[O-] (stereo not drawn) [Example 171] | 0.8 | 3 to 10 | 3 to 10
20 | – | – | – | Cc1ccc2c(c1C)N(CCCN(C)Cc1ccccc1OCCO)c1ccccc1[S+]2[O-] (stereo not drawn) [Example 173] | 0.3 | 30 | 10
21 | – | – | – | Cc1ccc2c(c1C)N(CCCN(C)Cc1c(O)ccc(C)c1O)c1ccccc1[S+]2[O-] (stereo not drawn) [Example 174] | 0.5 | 10 to 30 | 10

Row | Inhibitory Strength (%) ([1]; Conc. of Compd. 3 μM) | Inhibitory Strength (%) ([1]; Conc. of Compd. 10 μM) | Inhibitory Strength (%) ([1]; Conc. of Compd. 30 μM) | Compound | IC50 (RBL-2H3 cells) [µM] | IC50 (human basophils; [2]) [µM] | IC50 (human basophils; [3]) [µM]
22 | – | – | – | COc1cc(C)c(O)c(CN(C)CCCN2c3ccccc3[S+]([O-])c3ccc(C)c(C)c32)c1O (stereo not drawn) [Example 175] | 0.8 | 30 to 100 | 10
23 | – | – | – | COc1ccc(CN(C)CCCN2c3ccccc3[S+]([O-])c3ccc(C)c(C)c32)o1 (stereo not drawn) [Example 176] | 2 | 30 to 100 | 10 to 30
24 | – | – | – | Cc1ccc2c(c1C)N(CCCN(C)Cc1ccc(CO)o1)c1ccccc1[S+]2[O-] (stereo not drawn) [Example 177] | 1 | 10 | < 3
25 | – | 100 | – | Cc1ccc2c(c1C)N(CCN(C)Cc1ccccc1O)c1ccccc1[S+]2[O-] (stereo not drawn) [Example 179] | 2 | 10 to 30 | 3 to 10
26 | – | – | – | COc1cccc(CN(C)CCN2c3ccccc3[S+]([O-])c3ccc(C)c(C)c32)c1O (stereo not drawn) [Example 180] | 2 | 30 to 100 | 3 to 10
27 | – | – | – | Cc1ccc2c(c1C)N(CCN(C)Cc1cccc(C)c1O)c1ccccc1[S+]2[O-] (stereo not drawn) [Example 181] | 2 | 10 to 30 | < 10
28 | – | – | – | COc1ccccc1CN(C)CCN1c2ccccc2[S+]([O-])c2ccc(C)c(C)c21 (stereo not drawn) [Example 182] | 2 | 30 to 100 | 10 to 30
29 | – | – | – | Cc1ccc2c(c1C)N(CCN(C)Cc1ccccc1OCCO)c1ccccc1[S+]2[O-] (stereo not drawn) [Example 183] | 3 | 30 to 100 | 10 to 30
30 | – | – | – | Cc1ccc2c(c1C)N(CCN(C)Cc1cccc(CO)c1O)c1ccccc1[S+]2[O-] (stereo not drawn) [Example 185] | 0.5 | 10 to 30 | < 3
31 | – | – | – | Cc1ccc2c(c1)N(CCCN(C)Cc1ccccc1O)c1c(ccc(C)c1C)[S+]2[O-] (stereo not drawn) [Example 188] | 1 | 10 | 3 to 10
32 | – | – | – | COc1ccc2c(c1)N(CCCN(C)Cc1ccccc1O)c1c(ccc(C)c1C)[S+]2[O-] (stereo not drawn) [Example 189] | 0.8 | 3 to 10 | 3 to 10
33 | – | – | – | Cc1ccc2c(c1C)N(CCCN(C)Cc1ccccc1)c1cc(-c3nnn(C)n3)ccc1[S+]2[O-] (stereo not drawn) [Example 190] | 0.5 | 3 | 10
34 | – | – | – | Cc1ccc2c(c1C)N(CCN(CCO)Cc1ccccc1)c1ccccc1[S+]2[O-] (stereo not drawn) [Example 193] | 2 | 30 | 10
35 | – | – | – | Cc1ccc2c(c1C)N(CCNCc1ccc(S(N)(=O)=O)cc1)c1ccccc1[S+]2[O-] (stereo not drawn) [Example 195] | 0.5 | 30 to 100 | 10 to 30
36 | – | – | 30% | Cc1ccc2c(c1C)N(CCCN)c1ccccc1S2(=O)=O [Example 196, 1,2-Dimethyl-10-(3-aminopropyl)phenothiazine-5,5-dioxide] | 5 | – | –
37 | – | – | 70% | Cc1ccc2c(c1C)N(CCCNCc1ccccc1)c1ccccc1S2(=O)=O [Example 200] | 0.4 | – | –
38 | – | – | 30-70% | Cc1ccc2c(c1C)N(CCCNCc1ccccc1)c1cc(CCO)ccc1S2(=O)=O [Example 201] | 10 | 10 | < 10
39 | – | – | 80% | Cc1ccc2c(c1C)N(CCCN(CCO)Cc1ccccc1)c1ccccc1S2(=O)=O [Example 202] | 6 | 10 to 30 | < 10
40 | 100 | – | – | Cc1ccc2c(=NOCCC(=O)O)c3ccccc3n(CCCNCc3ccccc3)c2c1C [Example 235] | < 1 | 30 | 30
41 | 70 | – | – | Cc1ccc2c(=NOC(C)C(=O)O)c3ccccc3n(CCCNCc3ccccc3)c2c1C (stereo not drawn) [Example 236] | 1 | – | –
42 | – | – | 100% | Cc1ccc2c(c1C)N(CCCNCc1ccccc1)c1cccc(CC(=O)O)c1[S+]2[O-] (stereo not drawn) [Example 262] | 8 | – | –
